Like-named read-outs stand apart in the source and are kept apart here.

Test [1] relates to epimastigotes of T. cruzi (Tulahuen 2 strain). In words: Anti-T. cruzi test in vitro (epimastigote growth inhibition). The test is classed as cell-based, Trypanosoma cruzi. As to conditions: for IC50: Trypanosoma cruzi, read-out: IC50 against T. cruzi; for SI (selectivity index): macrophages (J774.1) vs T. cruzi epimastigotes. Here is the method: (§1) To evaluate the anti-trypanosomal activity of the synthesized 3H-[1,2]dithioles we used T. cruzi, Tulahuen 2 strain (discrete typing unit, DTU, TcVI [18]) in the epimastigote form. […] To establish the selectivity of the compounds against the parasite, unspecific cytotoxicity against mammalian cells (J774.1 murine macrophages) was studied for the most relevant derivatives. The selectivity indexes (SI) were also determined (Table 1).
We used epimastigotes of the Tulahuen 2 strain (DTU, Tc VI) growing in an axenic milieu (BHI-Tryptose). Cells from a 5–7-day-old culture were inoculated in fresh culture milieu to give an initial concentration of 1 × 10^6 cells/mL. The absorbance at 600 nm of the cells in culture was measured every day. At day 5, the milieu was inoculated with different quantities of the compounds from a stock solution in DMSO (DMSO concentration in the culture milieu never exceeded 0.4%). The control was made in the presence of 0.4% DMSO and in the absence of compounds. […] At day 5, the absorbance of the culture was measured and related to the control. The IC50 value was taken as the concentration of drug needed to reduce the absorbance ratio to 50%.

Test [2] addresses T1, Trypanosoma cruzi triosephosphate isomerase (TcTIM) (Trypanosoma cruzi, UniProt P52270).
T1 construct: made in house; host or cells: Escherichia coli
In words: Inhibition of enzymatic activity of TcTIM. The test is classed as biochemical. As to conditions: for inhibition at 25 µM: read-out: TcTIM % Inhib25; for inhibition at 200 µM: read-out: TcTIM % Inhib200; for IC50: isolated enzyme, 2 h incubation at 36 °C. Here is the method:
In order to investigate if the 3H-[1,2]dithioles inhibit TcTIM, we initially tested the inhibitory capacity of the compounds at a concentration of 200 μM and then at 25 μM.
Expression and purification of protein: TcTIM was expressed in Escherichia coli and purified as described in the literature. After purification, the enzyme, dissolved in 100 mM triethanolamine, 10 mM EDTA and 1 mM dithiothreitol (pH 8), was precipitated with ammonium sulfate (75% saturation) and stored at 4 °C. Before use, extensive dialysis against 100 mM triethanolamine/10 mM EDTA (pH 7.4) was performed. Protein concentration was determined by absorbance at 280 nm (ε = 36,440 M^−1·cm^−1).
Enzymatic activity assays. Enzymatic activity was determined following the conversion of glyceraldehyde 3-phosphate into dihydroxyacetone phosphate. The decrease in absorbance at 340 nm was followed in a multicell Cary spectrophotometer at 25 °C. The reaction mixture (1 mL, pH 7.4) contained 100 mM triethanolamine, 10 mM EDTA, 0.2 mM NADH, 1 mM glyceraldehyde 3-phosphate, and 0.9 units of α-glycerol phosphate dehydrogenase. The reaction was initiated by addition of 5 ng/mL of the TcTIM.
For inactivation studies, TcTIM was incubated at a concentration of 5 mg/mL in a buffer containing 100 mM triethanolamine, 10 mM EDTA, pH 7.4 and 10% of DMSO at 36 °C. The mixture also contained the compounds at the indicated concentrations. Compounds were dissolved in DMSO. After 2 h, […] was withdrawn and added to 1 mL of reaction mixture for the activity assay. None of the molecules tested here affected the activity of α-glycerol phosphate dehydrogenase, the enzyme used for trapping the product.
The IC50 value was taken as the concentration of drug needed to reduce the enzymatic activity to 50%. The experiments were performed in triplicate.

Test [3] deals with T2, cruzipain (Trypanosoma cruzi, UniProt P25779).
T2 construct: endogenous in cells; host or cells: T. cruzi epimastigotes, Tulahuen 2 strain
Nature of the test: Inhibition of T. cruzi cruzipain (Z-Phe-Arg-AMC fluorogenic substrate). The test is classed as biochemical. The conditions noted are these: read-out: Cruzipain % Inhib100. The procedure: Initially, we tested the dithioles as inhibitors of the protease cruzipain from T. cruzi at a concentration of 100 μM.
Cruzipain was purified to homogeneity from epimastigotes of the Tulahuen 2 strain by ConA-Sepharose affinity chromatography, as previously described. Cruzipain (2.5 μM ε = 58,285 M^−1·cm^−1) was incubated in 50 mM acetate buffer pH 5.5 with 50 mM DTT and 100 μM inhibitor was added, shaking the solution for 15 min at 27 °C. The derivatives were added diluted in DMSO, and the controls contained the same solvent concentration. The concentration of DMSO never exceeded 1% in the reaction medium. E-64 was used as a positive control of inhibition. Then, the fluorogenic substrate Z-Phe-Arg-AMC (100 μM) was added and the fluorescence was measured during 10 min at intervals of 3 s (excitation at 350 nm and emission at 460 nm) using a Varioskan Flash Spectrophotometer. From the slope of the negative control, we calculated the total (100%) enzyme activity, while the slopes obtained in the presence of the compounds yielded the percentage of remaining enzyme activity. The percentage of enzyme inhibition was determined as […]. The experiments were done in duplicate.

In test [4] the target is T2, cruzipain. The description is as above. Type of test: biochemical. As to conditions: isolated enzyme.
The test system of test [5] is J774.1 murine macrophages. In words: Unspecific in vitro cytotoxicity of mammalian cells (MTT). The test is classed as cell-based. The conditions noted are these: Mus musculus, 48 h exposure, read-out: IC50 against Macrophages. Here is the method:
as §1
J774.1 murine macrophage cells (ATCC, Manassas, VA, USA) were grown in DMEM culture milieu containing 4 mM L-glutamine and supplemented with 10% heat-inactivated fetal calf serum. […] Afterwards, cells were exposed for 48 h to the compounds (25–400 μM) or vehicle for control (0.4% DMSO), and additional controls (cells in medium) were used in each test. Cell viability was then assessed by measuring the mitochondria-dependent reduction of MTT (3-(4,5-dimethylthiazol-2-yl)-2,5-diphenyltetrazolium bromide) to formazan. For this purpose, MTT in sterile PBS (0.2% glucose) pH 7.4 was added to the macrophages to achieve a final concentration of 0.1 mg/mL and the cells were incubated at 37 °C for 3 h. After removing the medium, formazan crystals were dissolved in 180 μL of DMSO and 20 μL of MTT buffer (0.1 M glycine, 0.1 M NaCl, 0.5 mM EDTA, pH 10.5) and the absorbance at 560 nm was measured. The IC50 was defined as the drug concentration at which 50% of the cells were viable, relative to the control (no drug added), and was determined by analysis using OriginLab8.5® sigmoidal regression (% of viable cells vs. logarithm of the compound concentration). Samples were performed in triplicate.

The mark [6] stands for this setting: epimastigotes, Tulahuen 2 strain, triplicate.
Where [7] appears, read: percentage of enzymatic inhibition at 25 μM.
[8] abbreviates: percentage of enzymatic inhibition at 200 μM.
Setting [9] is: percentage of enzymatic inhibition at 100 μM.

T2 sequence (P25779 123-467): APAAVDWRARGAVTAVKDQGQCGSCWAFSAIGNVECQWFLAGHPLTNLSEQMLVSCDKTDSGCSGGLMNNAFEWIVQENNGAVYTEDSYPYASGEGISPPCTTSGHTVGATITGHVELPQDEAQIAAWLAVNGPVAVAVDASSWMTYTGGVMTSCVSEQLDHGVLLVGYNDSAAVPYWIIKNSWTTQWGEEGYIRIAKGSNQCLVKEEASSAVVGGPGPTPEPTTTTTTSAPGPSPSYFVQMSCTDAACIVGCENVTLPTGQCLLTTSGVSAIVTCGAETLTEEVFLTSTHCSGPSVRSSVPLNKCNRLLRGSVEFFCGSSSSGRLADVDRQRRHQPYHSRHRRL
T1 sequence (P52270 whole entry): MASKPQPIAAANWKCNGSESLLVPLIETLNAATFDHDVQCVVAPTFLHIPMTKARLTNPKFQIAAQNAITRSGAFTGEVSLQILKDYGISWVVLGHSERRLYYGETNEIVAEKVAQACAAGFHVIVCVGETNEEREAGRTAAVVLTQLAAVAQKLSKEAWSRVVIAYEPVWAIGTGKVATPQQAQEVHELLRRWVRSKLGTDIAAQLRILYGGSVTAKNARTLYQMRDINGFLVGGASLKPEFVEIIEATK

As to `O=C(Cc1ccccc1)Oc1ccc(-c2cc(=S)ss2)cc1` [Derivative 1], in test [1] (TULAHUEN), the IC50 was more than 25 µM. Moreover, in test [2], the inhibition at 25 µM worked out at 33 ± 1.9% and the inhibition at 200 µM turned out to be 77%. The inhibition at 100 µM on cruzipain [3] is 21.3 ± 0.3%.
For the compound `COc1ccc(-c2cc(=S)ss2)cc1` [Derivative 5], the IC50 was more than 25 µM in test [1] (setting [6]), 1.2 ± 0.05 µM in test [2] and 4 ± 2 µM against cruzipain [4]. For the same compound, the “IC50 against T. cruzi” value in test [1] (setting [6]) is “inactive”. Further, the inhibition at 25 µM in test [2] (setting [7]) stood at 80 ± 2.3%. For the same compound, the inhibition at 200 µM in test [2] (setting [8]) was 86%. Besides, the inhibition at 100 µM at cruzipain [3] (setting [9]) stood at 89 ± 0.5%.
Consider `Oc1ccc(-c2cc(=S)ss2)cc1` [Derivative 6], for which the IC50 came out at 25 ± 1 µM in test [1] (setting [6]) and 51 ± 2 µM in test [5]. The “SI (selectivity index)” value in test [1] was 2.0. Also, the inhibition at 25 µM in test [2] (setting [7]) was 35 ± 3%. Also, in test [2] (setting [8]), the inhibition at 200 µM was 71%. For the same compound, at cruzipain [3] (setting [9]), the inhibition at 100 µM worked out at 59.3 ± 0.3%.
Regarding `O=C(/C=C/c1ccccc1)Oc1ccc(-c2cc(=S)ss2)cc1` [Derivative 7], the IC50 in test [1] (setting [6]) is more than 25 µM. The inhibition at 200 µM in test [2] (setting [8]) is 14%. The inhibition at 100 µM at cruzipain [3] (setting [9]) was 78.4 ± 0.6%.
On to `O=C(/C=C/c1ccc(C(=O)Oc2ccc(-c3cc(=S)ss3)cc2)cc1)c1ccccc1` [Derivative 8], for which the IC50 in test [1] (setting [6]) is more than 25 µM. On cruzipain [3] (setting [9]), the inhibition at 100 µM came to 58 ± 0.1%.
Turning to `O=C(Oc1ccc(-c2cc(=S)ss2)cc1)c1ccc(/C=C/C(=O)c2ccccc2O)cc1` [Derivative 9], the IC50 in test [1] (setting [6]) was 25 ± 0.5 µM; in test [5] it was 63 ± 2 µM. Also, in test [1], the “SI (selectivity index)” value was 2.5. For the same compound, the inhibition at 200 µM in test [2] (setting [8]) was 50%. Also, the inhibition at 100 µM at cruzipain [3] (setting [9]) was 77.9 ± 0.6%.
`CC(=O)COc1ccc(-c2cc(=S)ss2)cc1` [Derivative 10]: in test [1] (setting [6]), the IC50 is more than 25 µM. In test [2] (setting [7]), the inhibition at 25 µM worked out at 61 ± 1%. Further, the inhibition at 200 µM in test [2] (setting [8]) is 70%. Also, the inhibition at 100 µM on cruzipain [3] (setting [9]) stood at 73.9 ± 0.1%.
For the compound `O=C(COc1ccc(-c2cc(=S)ss2)cc1)c1ccccc1` [Derivative 11], the results for the IC50 (in test [1] (setting [6]); against cruzipain [4]) were more than 25 µM and 17.1 ± 3.6 µM, respectively. Also, the inhibition at 100 µM at cruzipain [3] (setting [9]) came out at 96.3 ± 0.7%.
`O=C(COc1ccc(-c2cc(=S)ss2)cc1)c1ccc2ccccc2c1` [Derivative 12]: the IC50 in test [1] (setting [6]) is more than 25 µM; at cruzipain [4], 21.6 ± 6.1 µM. Further, the “TcTIM % Inhib25” value in test [2] (setting [7]) was “ni ^d”. The inhibition at 200 µM in test [2] (setting [8]) amounted to 70%. Moreover, the inhibition at 100 µM at cruzipain [3] (setting [9]) came to 91.5 ± 0.6%.
Turning to `O=C(CS/C(C(=O)c1ccccc1)=C1\C=C(c2ccc(O)cc2)SS1)c1ccccc1` [Derivative 13], the results for the IC50 in test [1] (setting [6]), in test [5] and in test [2] were 5.5 ± 0.9 µM, 34 ± 0.5 µM and 3.35 ± 0.14 µM, respectively. In addition, the “SI (selectivity index)” value in test [1] turned out to be 6.2. Further, the inhibition at 25 µM in test [2] (setting [7]) amounted to 75 ± 6%. Besides, the inhibition at 200 µM in test [2] (setting [8]) turned out to be 86%. For the same compound, the inhibition at 100 µM at cruzipain [3] (setting [9]) is 61 ± 0.3%.
For `COc1ccc(C2=C/C(=C(\SCC(=O)c3ccccc3)C(=O)c3ccccc3)SS2)cc1` [Derivative 16], the figures for the IC50 in test [1] (setting [6]) and in test [2] were more than 25 µM and 7.53 ± 0.1 µM, respectively. Further, in test [2] (setting [7]), the inhibition at 25 µM worked out at 63 ± 0.1%. Further, the inhibition at 200 µM in test [2] (setting [8]) was found to be 77%. The inhibition at 100 µM at cruzipain [3] (setting [9]) was 62.3 ± 0.3%.
In the case of `COc1ccc(C2=C/C(=C(\SCC(=O)c3ccc4ccccc4c3)C(=O)c3ccc4ccccc4c3)SS2)cc1` [Derivative 17], the IC50 in test [1] (setting [6]) was more than 25 µM. Moreover, in test [2] (setting [7]), the inhibition at 25 µM was 52 ± 2.5%. In addition, in test [2] (setting [8]), the inhibition at 200 µM is 81%. For the same compound, the inhibition at 100 µM on cruzipain [3] (setting [9]) stood at 82.6 ± 0.6%.
As to `O=C(C[S+]=c1cc(-c2ccc(O)cc2)ss1)c1ccc2ccccc2c1` [Derivative 18], the IC50 was more than 25 µM in test [1] (setting [6]) and 11.03 ± 0.03 µM in test [2]. Besides, the inhibition at 25 µM in test [2] (setting [7]) worked out at 75 ± 0.3%. Moreover, the inhibition at 200 µM in test [2] (setting [8]) turned out to be 70%. Also, on cruzipain [3] (setting [9]), the inhibition at 100 µM stood at 77.1 ± 0.1%.
With `COc1ccc(-c2cc(=[S+]CC(C)=O)ss2)cc1` [Derivative 19], the IC50 in test [1] (setting [6]) was more than 25 µM; in test [2] it was 3.26 ± 0.05 µM; against cruzipain [4] it was 11.3 ± 0.6 µM. For the same compound, the “IC50 against T. cruzi” value in test [1] (setting [6]) is “inactive”. Moreover, the inhibition at 25 µM in test [2] (setting [7]) was 73 ± 3.2%. Further, in test [2] (setting [8]), the inhibition at 200 µM turned out to be 95%. The inhibition at 100 µM on cruzipain [3] (setting [9]) turned out to be 90.5 ± 0.7%.
Take `COc1ccc(-c2cc(=[S+]CC(=O)c3ccccc3)ss2)cc1` [Derivative 20]: the IC50 in test [1] (setting [6]) was more than 25 µM. Also, the inhibition at 100 µM at cruzipain [3] (setting [9]) stood at 72 ± 0.1%.
With `COc1ccc(-c2cc(=[S+]CC(=O)c3ccc4ccccc4c3)ss2)cc1` [Derivative 21], the IC50 in test [1] (setting [6]) was more than 25 µM; on cruzipain [4], 17.7 ± 3.9 µM. Moreover, the inhibition at 200 µM in test [2] (setting [8]) amounted to 65%. For the same compound, the inhibition at 100 µM at cruzipain [3] (setting [9]) is 90.2 ± 0.6%.

The term IC50 denotes the concentration that inhibits the measured activity by half.

Source of the values: publication PMC6332334, “3-H-[1,2]Dithiole as a New Anti-Trypanosoma cruzi Chemotype: Biological and Mechanism of Action Studies” (Molecules, 2015).
